For 26 molecules, IC50 results are on record in patent US9388199B2, “Pyrrolidine derivatives and their use as complement pathway modulators” (priority 2012, dated 2016).

The target of this assay is Recombinant human factor D (Homo sapiens (Human), UniProt P00746). Nature of the assay: Human Complement Factor D Assay: Method 1. Format: biochemical. To be noted: 10 nM factor D, substrate Z-Lys-thiobenzyl, fluorescence readout, read-out: IC50 (μM), Factor D inhibition. Here is the method: Human Complement Factor D Assay: Method 1
Chain of Recombinant human factor D (P00746 26-253): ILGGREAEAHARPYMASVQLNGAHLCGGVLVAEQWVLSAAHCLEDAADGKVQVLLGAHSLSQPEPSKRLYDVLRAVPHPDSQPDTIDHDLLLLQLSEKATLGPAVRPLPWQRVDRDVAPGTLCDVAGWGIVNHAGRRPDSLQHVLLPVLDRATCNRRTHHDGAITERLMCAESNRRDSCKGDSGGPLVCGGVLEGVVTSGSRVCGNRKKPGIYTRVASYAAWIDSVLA
Recombinant human factor D (expressed in E. coli and purified using standard methods) at 10 nM concentration is incubated with test compound at various concentrations for 1 hour at room temperature in 0.1 M Hepes buffer, pH 7.5, containing 1 mM MgCl2, 1 M NaCl and 0.05% CHAPS. A synthetic substrate Z-Lys-thiobenzyl and 2,4-dinitrobenzenesulfonyl-fluoresceine are added to final concentrations of 200 μM and 25 μM, respectively. The increase in fluorescence is recorded at excitation of 485 nm and emission at 535 nm in a microplate spectrofluorimeter. IC50 values are calculated from percentage of inhibition of complement factor D-activity as a function of test compound concentration.

Turning to `C[Si](C)(C)CCNC(=O)[C@@H]1C[C@H]2C[C@H]2N1C(=O)Cn1nc(C(N)=O)c2ccncc21` [Example 9, 1-{2-Oxo-2-[(1R,3S,5R)-3-(2-trimethylsilanyl-ethylcarbamoyl)-2-aza-bicyclo[3.1.0]hex-2-yl)-ethyl}-1H-pyrazolo[3,4-c] pyridine-3-carboxylic acid amide], the IC50 (commonly the concentration that gives 50% inhibition) turned out to be 0.153 µM.

As for `CO[C@@H]1CN(C(=O)Cn2nc(C(N)=O)c3ccccc32)[C@H](C(=O)NCCC(C)(C)C)[C@H]1F` [Example 11, 1-{2-[(2R,3R,4R)-2-(3,3-Dimethyl-butylcarbamoyl)-3-fluoro-4-methoxy-pyrrolidin-1-yl]-2-oxo-ethyl}-1H-indazole-3-carboxylic acid amide], the IC50 was 14.6 µM.

Take `CC[C@@H](C)NC(=O)[C@@H]1C[C@H]2C[C@H]2N1C(=O)Cn1nc(C(C)=O)c2cc(OCc3ncccn3)ccc21` [Example 17, (1R,3S,5R)-2-{2-[3-Acetyl-5-(pyrimidin-2-ylmethoxy)-indazol-1-yl]-acetyl}-2-aza-bicyclo[3.1.0]hexane-3-carboxylic acid ((R)-sec-butyl)-amide]: the IC50 is 0.333 µM.

As for `CC(=O)c1nn(CC(=O)N2[C@@H]3C[C@@H]3C[C@H]2C(=O)NCCC(F)(F)F)c2cnccc12` [Example 39, (1R,3S,5R)-2-[2-(3-Acetyl-pyrazolo[3,4-c]pyridin-1-yl)-acetyl]-2-aza-bicyclo [3.1.0]hexane-3-carboxylic acid (3,3,3-trifluoro-propyl)-amide], the IC50 was 5.32 µM.

In the case of `CC(C)(C)CCNC(=O)[C@@H]1C[C@H]2C[C@H]2N1C(=O)Nc1cn(C(N)=O)c2ccccc12` [Example 21, (1R,3S,5R)-2-Aza-bicyclo[3.1.0]hexane-2,3-dicarboxylic acid 2-[(1-carbamoyl-1H-indol-3-yl)-amide]3-[(3,3-dimethyl-butyl)-amide]], the IC50 stood at 0.058 µM.

For the molecule `NC(=O)n1cc(NC(=O)N2[C@@H]3C[C@@H]3C[C@H]2C(=O)NCCOC(F)(F)F)c2ccccc21` [Example 23, (1R,3S,5R)-2-Aza-bicyclo [3.1.0]hexane-2,3-dicarboxylic acid 2-[(1-carbamoyl-1H-indol-3-yl)-amide] 3-[(2-trifluoromethoxy-ethyl)-amide]], the IC50 came to 0.427 µM.

In the case of `COC[C@H](CC(C)(C)C)NC(=O)[C@@H]1C[C@H]2C[C@H]2N1C(=O)Cn1nc(C(N)=O)c2ccccc21` [Example 37, 1-{2-[(1R,3S,5R)-3-((S)-1-Methoxymethyl-3,3-dimethyl-butylcarbamoyl)-2-aza-bicyclo[3.1.0]hex-2-yl]-2-oxo-ethyl}-1H-indazole-3-carboxylic acid amide], the IC50 was found to be 0.443 µM.

`CC(=O)c1nn(CC(=O)N2[C@@H]3C[C@@H]3C[C@H]2C(=O)NCCC(C)(C)C)c2cnccc12` [Example 7, (1R,3S,5R)-2-[2-(3-Acetyl-pyrazolo[3,4-c]pyridin-1-yl)-acetyl]-2-aza-bicyclo[3.1.0] hexane-3-carboxylic acid (3,3-dimethyl-butyl)-amide]: the IC50 worked out at 0.068 µM.

For the molecule `CO[C@H]1[C@@H](C(=O)NCCC(C)(C)C)N(C(=O)Cn2nc(C(N)=O)c3ccccc32)C[C@@H]1F` [Example 3, 1-{2-[(2S,3S,4S)-2-(3,3-Dimethyl-butylcarbamoyl)-4-fluoro-3-methoxy-pyrrolidin-1-yl]-2-oxo-ethyl}-1H-indazole-3-carboxylic acid amide], the IC50 amounted to 0.103 µM.

For the molecule `CC(C)(C)CCNC(=O)[C@@H]1C[C@H]2C[C@H]2N1C(=O)Cn1nc(C(N)=O)c2ccccc21` [Example 1, 1-{2-[(1R,3S,5R)-3-(3,3-Dimethyl-butylcarbamoyl)-2-aza-bicyclo[3.1.0]hex-2-yl]-2-oxo-ethyl}-1H-indazole-3-carboxylic acid amide], the IC50 turned out to be 0.061 µM.

With `CC[C@H](C)NC(=O)[C@@H]1C[C@H]2C[C@H]2N1C(=O)Cn1nc(C(C)=O)c2cc(OCc3ncccn3)ccc21` [Example 19, (1R,3S,5R)-2-{2-[3-Acetyl-5-(pyrimidin-2-ylmethoxy)-indazol-1-yl]-acetyl}-2-aza-bicyclo[3.1.0]hexane-3-carboxylic acid ((S)-sec-butyl)-amide], the IC50 worked out at 0.929 µM.

On to `CC(=O)c1nn(CC(=O)N2[C@@H]3C[C@@H]3C[C@H]2C(=O)NCCC(C)(C)C)c2ccc(OCc3ncccn3)cc12` [Example 8, (1R,3S,5R)-2-{2-[3-Acetyl-5-(pyrimidin-2-ylmethoxy)-indazol-1-yl]-acetyl}-2-aza-bicyclo[3.1.0]hexane-3-carboxylic acid (3,3-dimethyl-butyl)-amide], for which the IC50 was 0.009 µM.

Turning to `NC(=O)n1cc(NC(=O)N2[C@@H]3C[C@@H]3C[C@H]2C(=O)NCCCCOC(F)(F)F)c2ccccc21` [Example 26, (1R,3S,5R)-2-Aza-bicyclo [3.1.0]hexane-2,3-dicarboxylic acid 2-[(1-carbamoyl-1H-indol-3-yl)-amide] 3-[(4-trifluoromethoxy-butyl)-amide]], the IC50 was 1.39 µM.

With `CC(=O)c1nn(CC(=O)N2[C@@H]3C[C@@H]3C[C@H]2C(=O)NC(C)C)c2ccc(OCc3ncccn3)cc12` [Example 20, (1R,3S,5R)-2-{2-[3-Acetyl-5-(pyrimidin-2-ylmethoxy)-indazol-1-yl]-acetyl}-2-aza-bicyclo[3.1.0]hexane-3-carboxylic acid isopropyl amide], the IC50 worked out at 0.328 µM.

Consider `CC(=O)c1nn(CC(=O)N2[C@@H]3C[C@@H]3C[C@H]2C(=O)NCCCOC(F)(F)F)c2ccccc12` [Example 2, (1R,3S,5R)-2-[2-(3-Acetyl-indazol-1-yl)-acetyl]-2-aza-bicyclo[3.1.0]hexane-3-carboxylic acid (3-trifluoromethoxy-propyl)-amide], for which the IC50 is 0.605 µM.

Regarding `NC(=O)n1cc(NC(=O)N2[C@@H]3C[C@@H]3C[C@H]2C(=O)NCCCOC(F)(F)F)c2ccccc21` [Example 25, (1R,3S,5R)-2-Aza-bicyclo [3.1.0]hexane-2,3-dicarboxylic acid 2-[(1-carbamoyl-1H-indol-3-yl)-amide] 3-[(3-trifluoromethoxy-propyl)-amide]], the IC50 worked out at 0.912 µM.

`CCNC(=O)[C@@H]1C[C@H]2C[C@H]2N1C(=O)Cn1nc(C(C)=O)c2cc(OCc3ncccn3)ccc21` [Example 13, (1R,3S,5R)-2-{2-[3-Acetyl-5-(pyrimidin-2-ylmethoxy)-indazol-1-yl]-acetyl}-2-aza-bicyclo[3.1.0]hexane-3-carboxylic acid ethylamide]: the IC50 stood at 0.504 µM.

For the molecule `CCNC(=O)[C@@H]1C[C@H]2C[C@H]2N1C(=O)Nc1cn(C(N)=O)c2ccccc12` [Example 24, (1R,3S,5R)-2-Aza-bicyclo [3.1.0]hexane-2,3-dicarboxylic acid 2-[(1-carbamoyl-1H-indol-3-yl)-amide] 3-ethylamide], the IC50 stood at 1.75 µM.

In the case of `CCNC(=O)[C@@H]1C[C@H]2C[C@H]2N1C(=O)Cn1nc(C(N)=O)c2ccncc21` [Example 12, 1-[2-((1R,3S,5R)-3-Ethylcarbamoyl-2-aza-bicyclo [3.1.0]hex-2-yl)-2-oxo-ethyl]-1H-pyrazolo[3,4-c]pyridine-3-carboxylic acid amide], the IC50 stood at 7.22 µM.

For `CC(C)(C)C(=O)CNC(=O)[C@@H]1C[C@H]2C[C@H]2N1C(=O)Cn1nc(C(N)=O)c2ccccc21` [Example 34, 1-{2-[(1R,3S,5R)-3-(3,3-Dimethyl-2-oxo-butylcarbamoyl)-2-aza-bicyclo[3.1.0]hex-2-yl]-2-oxo-ethyl}-1H-indazole-3-carboxylic acid amide], the IC50 is 0.192 µM.

Turning to `NC(=O)c1nn(CC(=O)N2[C@@H]3C[C@@H]3C[C@H]2C(=O)NCCF)c2ccccc12` [Example 41, 1-{2-[(1R,3S,5R)-3-(2-Fluoro-ethylcarbamoyl)-2-aza-bicyclo[3.1.0]hex-2-yl]-2-oxo-ethyl}-1H-indazole-3-carboxylic acid amide], the half-inhibitory concentration (IC50) turned out to be 1.35 µM.

Consider `CC(C)(C)C(O)CNC(=O)[C@@H]1C[C@H]2C[C@H]2N1C(=O)Cn1nc(C(N)=O)c2ccccc21` (stereo partly drawn) [Example 33, 1-{2-[(1R,3S,5R)-3-(2-Hydroxy-3,3-dimethyl-butylcarbamoyl)-2-aza-bicyclo [3.1.0]hex-2-yl]-2-oxo-ethyl}-1H-indazole-3-carboxylic acid amide], for which the IC50 amounted to 0.271 µM.

In the case of `CC(=O)c1nn(CC(=O)N2[C@@H]3C[C@@H]3C[C@H]2C(=O)NCCC(C)C)c2ncccc12` [Example 30, (1R,3S,5R)-2-[2-(3-Acetyl-pyrazolo[3,4-b]pyridin-1-yl)-acetyl]-2-aza-bicyclo[3.1.0] hexane-3-carboxylic acid (3-methyl-butyl)-amide], the IC50 was determined as 0.324 µM.

For the molecule `CC(=O)c1nn(CC(=O)N2[C@@H]3C[C@@H]3C[C@H]2C(=O)NCC(O)C(F)(F)F)c2ncccc12` (stereo partly drawn) [Example 40, (1R,3S,5R)-2-[2-(3-Acetyl-pyrazolo[3,4-b]pyridin-1-yl)-acetyl]-2-aza-bicyclo [3.1.0]hexane-3-carboxylic acid (3,3,3-trifluoro-2-hydroxy-propyl)-amide], the IC50 was 10.8 µM.

As to `CC(C)(C)CCNC(=O)[C@@H]1C[C@H]2C[C@H]2N1C(=O)Cn1nc(C(N)=O)c2ccncc21` [Example 6, 1-{2-[(1R,3S,5R)-3-(3,3-Dimethyl-butylcarbamoyl)-2-aza-bicyclo[3.1.0]hex-2-yl]-2-oxo-ethyl}-1H-pyrazolo[3,4-c] pyridine-3-carboxylic acid amide], the IC50 was found to be 0.168 µM.

Turning to `CO[C@H]1[C@@H](C(=O)NCCC(C)(C)C)N(C(=O)Cn2nc(C(N)=O)c3cc(C)ncc32)C[C@@H]1F` [Example 4, 1-{2-[(2S,3S,4S)-2-(3,3-Dimethyl-butylcarbamoyl)-4-fluoro-3-methoxy-pyrrolidin-1-yl]-2-oxo-ethyl}-5-methyl-1H-pyrazolo[3,4-c]pyridine-3-carboxylic acid amide], the IC50 was 0.161 µM.
